According to patent publication US20240173419A1, “CDK2 DEGRADERS AND USES THEREOF” (Kymera Therapeutics, Inc., priority 2022, published 2024):

Target: T1, CDK2 (Homo sapiens, UniProt P24941)
T1 construct: endogenous in cells; host or cells: MKN1 cells
Experiment: CDK2 degradation in MKN1 cells (AlphaLISA)
Type: cell-based
Parameters: key to CDK2 degradation 14 h: Mean external-Abs DC50 (nM): A (<100 nM); B (≥100-500 nM); C (>500-1000 nM); D (>1000 nM); E (not achieved)
Settings: for CDK2 degradation 14 h: Average Dmax % / DC50 / CDK2 degradation 14 h: Mean external-Abs DC50 (nM): 14 h incubation; for DC50: read-out: CDK2 degradation 14 h: Mean external-Abs DC50; for Dmax: MKN-1, 14 h incubation
Procedure, shortened: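 MKN1 cells (2e4/well) treated 14 h at 37° C with 11-point 1:5 dilutions (0.001 nM-10 μM, 0.1% DMSO). CDK2 in lysates quantified by AlphaLISA, no-cell background subtracted; DC50 from four-parameter logistic fit.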

| Compound | CDK2 degradation 14 h: Average Dmax % | DC50 | Dmax | CDK2 degradation 14 h: Mean external-Abs DC50 (nM) |
| --- | --- | --- | --- | --- |
| Cc1cc(S(=O)(=O)N2CCC(F)(CN(C)C3CCN(c4cccc5c4n(C)c(=O)n5C4CCC(=O)NC4=O)CC3)CC2)ccc1Nc1ncc2cc(Cl)c(=O)n(C3CCCC34CC4)c2n1 (stereo not drawn) [I-358] | B (B (>50% -75%)) | 500 to 1000 nM |  |  |
| Cc1cc(S(=O)(=O)C2CC3(CCN(CCOC4CN(c5cccc6c5n(C)c(=O)n6C5CCC(=O)NC5=O)C4)CC3)C2)ccc1Nc1ncc(C(F)(F)F)c(N2CCCC(C)(O)C2)n1 (stereo not drawn) [I-854] | B (B (>50% -75%)) | 100 to 500 nM |  |  |
| Cc1cc(S(=O)(=O)NC2CC(N3CCN(CC4CCN(c5ccc(C6CCC(=O)NC6=O)cc5)CC4)CC3)C2)ccc1Nc1ncc(C(F)(F)F)c(N2CCCC(C)(O)C2)n1 (stereo not drawn) [I-719] | A (A (>75% o)) | < 100 nM |  |  |
| Cc1cc(S(=O)(=O)NCCOC2CC3(C2)CN(Cc2ccc4c(c2)n(C)c(=O)n4C2CCC(=O)NC2=O)C3)ccc1Nc1ncc2ccc(=O)n(C3CCCC3)c2n1 (stereo not drawn) [I-445] | A (A (>75% o)) | < 100 nM |  |  |
| Cc1cc(S(=O)(=O)NC2CCC(CN3CCN(c4cc(Cl)c(C5CCC(=O)NC5=O)cc4F)CC3)CC2)ccc1Nc1ncc(C(F)(F)F)c(N2CCCC(C)(O)C2)n1 (stereo not drawn) [I-800] | A (A (>75% o)) | < 100 nM |  |  |
| Cc1cc(S(=O)(=O)N2CCC(Cn3cnc4c3CCN(c3ccc5c(c3F)n(C)c(=O)n5C3CCC(=O)NC3=O)C4)CC2)ccc1Nc1ncc2ccc(=O)n(C3CCCC3)c2n1 (stereo not drawn) [I-280] | C (C (>25% -50%)) | > 1000 nM |  |  |
| Cc1cc(S(=O)(=O)NC2CCC(CN3CCN(c4ccc(C5CCC(=O)NC5=O)c(Cl)c4)CC3)CC2)ccc1Nc1ncc(C(F)(F)F)c(N2CCC[C@](C)(O)C2)n1 (stereo partly drawn) [I-745, N-[4-[[4-[3-chloro-4-(2,6-dioxo-3-piperidyl)phenyl]piperazin-1-yl]methyl]cyclohexyl]-4-[[4-[(3S)-3-hydroxy-3-methyl-1-piperidyl]-5-(trifluoromethyl)pyrimidin-2-yl]amino]-3-methyl-benzenesulfonamide] |  | < 100 nM | > 75% |  |
| Cc1cc(S(=O)(=O)NC2(C)CCN(CC3(F)CCN(c4ccc(C5CCC(=O)NC5=O)cc4)CC3)CC2)ccc1Nc1ncc(C(F)(F)F)c(N2CCC[C@](C)(O)C2)n1 (stereo partly drawn) [I-808] | A (A (>75% o)) | < 100 nM |  |  |
| Cc1cc(S(=O)(=O)NC2CCC(CN3CCN(c4cccc(NC5CCC(=O)NC5=O)c4)CC3)CC2)ccc1Nc1ncc(C(F)(F)F)c(N2CCCC(C)(O)C2)n1 (stereo not drawn) [I-1118] | A (A (>75% o)) | < 100 nM |  |  |
| Cc1cc(S(=O)(=O)N2CCC(OCC#Cc3cccc4c3n(C)c(=O)n4C3CCC(=O)NC3=O)CC2)ccc1Nc1ncc2cc(Cl)c(=O)n(C3CCCC3)c2n1 (stereo not drawn) [I-455] | D (D (<25%)) | > 1000 nM |  |  |
| Cc1cc(S(=O)(=O)C2CCN(CCC3CCN(c4cccc5c4n(C)c(=O)n5C4CCC(=O)NC4=O)CC3)CC2)ccc1Nc1ncc2cc(Cl)c(=O)n(C3CCCC34CC4)c2n1 (stereo not drawn) [I-59] | A (A (>75% o)) | < 100 nM |  |  |
| Cc1cc(S(=O)(=O)CCCO[C@H]2CC[C@H](CN3CCC(c4ccc5c(c4)n(C4CCC(=O)NC4=O)c(=O)n5C)CC3)CC2)ccc1Nc1ncc2cc(C(F)F)c(=O)n(C(C)C)c2n1 (stereo partly drawn) [I-6] | B (B (>50% -75%)) |  |  | E |
| C[C@]1(O)CCC[C@H]1n1c(=O)c(C(F)F)cc2cnc(NC3CCN(C(=O)COCCOCCOCCOCCNc4cccc5c4C(=O)N(C4CCC(=O)NC4=O)C5=O)CC3)nc21 (stereo partly drawn) [I-494] | D (D (<25%)) | > 1000 nM |  |  |
| Cc1cc(S(=O)(=O)CCCO[C@H]2CC[C@H](CN3CCC(c4ccc5c(c4)n(C)c(=O)n5C4CCC(=O)NC4=O)CC3)CC2)ccc1Nc1ncc2cc(Cl)c(=O)n(C3CCCC3)c2n1 (stereo partly drawn) [I-3, 3-[5-[1-[[4-[3-[4-[(6-Chloro-8-cyclopentyl-7-oxo-pyrido[2,3-d]pyrimidin-2-yl)amino]-3-methyl-phenyl]sulfonylpropoxy]cyclohexyl]methyl]-4-piperidyl]-3-methyl-2-oxo-benzimidazol-1-yl]piperidine-2,6-dione] |  | < 100 nM | > 75% |  |
| Cc1cc(S(=O)(=O)C2CC3(CCN(CC4CCN(c5cccc6c5n(C)c(=O)n6C5CCC(=O)NC5=O)CC4)CC3)C2)ccc1Nc1ncc2cc(Cl)c(=O)n(C3CCCC3)c2n1 (stereo not drawn) [I-58] | A (A (>75% o)) | < 100 nM |  |  |
| Cc1cc(S(=O)(=O)NC2CC(N3CCN(CC4CCN(c5ccc(NC6CCC(=O)NC6=O)c(Cl)c5)CC4)CC3)C2)ccc1Nc1ncc(C(F)(F)F)c(N2CCCC(C)(O)C2)n1 (stereo not drawn) [I-717] | A (A (>75% o)) | < 100 nM |  |  |
| Cc1cc(S(=O)(=O)NCCOC2CC3(C2)CN(CC#Cc2ccc4c(c2)n(C)c(=O)n4C2CCC(=O)NC2=O)C3)ccc1Nc1ncc2ccc(=O)n(C3CCCC3)c2n1 (stereo not drawn) [I-473] | A (A (>75% o)) | < 100 nM |  |  |
| Cc1cc(S(=O)(=O)N[C@H]2C[C@H](N3CCN(CC4CCN(c5cccc6c5n(C)c(=O)n6C5CCC(=O)NC5=O)CC4)CC3)C2)ccc1Nc1ncc(C(F)(F)F)c(N2CCC[C@H](C(F)F)C2)n1 (stereo partly drawn) [I-796] | A (A (>75% o)) | < 100 nM |  |  |

| Compound | CDK2 degradation 14 h: Average Dmax % | DC50 | Dmax | CDK2 degradation 14 h: Mean external-Abs DC50 (nM) |
| --- | --- | --- | --- | --- |
| Cc1cc(S(=O)(=O)NCCCN2CCN(C3CCN(c4ccc5c(c4)n(C)c(=O)n5C4CCC(=O)NC4=O)CC3)CC2)ccc1Nc1ncc2cc(Cl)c(=O)n(C(C)C)c2n1 (stereo not drawn) [I-398] | A (A (>75% o)) | < 100 nM |  |  |
| Cc1cc(S(=O)(=O)C2CC3(CCN(CC4CCN(c5ccc6c(c5F)n(C)c(=O)n6C5CCC(=O)NC5=O)CC4)CC3)C2)ccc1Nc1cc2c(ccc(=O)n2C2CCCC2)cn1 (stereo not drawn) [I-286] | A (A (>75% o)) | < 100 nM |  |  |
| Cc1cc(S(=O)(=O)C2CC3(CCN(CC4CCN(c5ccc6c(c5F)n(C)c(=O)n6C5CCC(=O)NC5=O)CC4)CC3)C2)ccc1Nc1ncc(C2CC2)c(N2CCCC(C)(O)C2)n1 (stereo not drawn) [I-839] | D (D (<25%)) | > 1000 nM |  |  |
| Cc1cc(S(=O)(=O)N2CCC(CN(C)C3CCN(c4cccc5c4n(C)c(=O)n5C4CCC(=O)NC4=O)CC3)CC2)ccc1Nc1ncc2cc(C(F)F)c(=O)n(C3CCCC3)c2n1 (stereo not drawn) [I-438] | A (A (>75% o)) | < 100 nM |  |  |
| COc1ccc2c(c1N1CCC(CN3CCC4(CC3)CC(S(=O)(=O)c3ccc(Nc5ncc6cc(Cl)c(=O)n(C7CCCC7)c6n5)c(C)c3)C4)CC1)n(C)c(=O)n2C1CCC(=O)NC1=O (stereo not drawn) [I-88] | A (A (>75% o)) | < 100 nM |  |  |
| Cc1cc(S(=O)(=O)NCCO[C@H]2CC[C@H](CN3CCC(c4ccc5c(c4)n(C)c(=O)n5C4CCC(=O)NC4=O)CC3)CC2)ccc1Nc1ncc2cc(Cl)c(=O)n(C3CCCC34CC4)c2n1 (stereo partly drawn) [I-439] | A (A (>75% o)) | < 100 nM |  |  |
| Cc1cc(S(=O)(=O)C(C)CCO[C@H]2CC[C@H](CN3CCC(c4ccc5c(c4)n(C4CCC(=O)NC4=O)c(=O)n5C)CC3)CC2)ccc1Nc1ncc2cc(Cl)c(=O)n(C3CCCC3)c2n1 (stereo partly drawn) [I-12] | A (A (>75% o)) | < 100 nM |  |  |
| CC1(O)CCN(c2nc(Nc3ccc(S(=O)(=O)NC4CCN(CC5CCN(c6ccc(C7CCC(=O)NC7=O)cc6F)CC5)CC4F)cc3F)ncc2C(F)(F)F)CC1 (stereo not drawn) [I-1050] | A (A (>75% o)) | < 100 nM |  |  |
| Cc1cc(S(=O)(=O)C2CC3(CCN(CC4CCN(c5cccc6c5n(C)c(=O)n6C5CCC(=O)NC5=O)CC4)CC3)C2)ccc1Nc1ncc(C(F)(F)F)c(C2CCC(C)(O)CC2)n1 (stereo not drawn) [I-119] | A (A (>75% o)) | < 100 nM |  |  |
| Cc1cc(S(=O)(=O)N2CCC(N3CCN(CCCc4ccc5c(c4)n(C)c(=O)n5C4CCC(=O)NC4=O)CC3)CC2)ccc1Nc1ncc2ccc(=O)n(C3CCCC3)c2n1 (stereo not drawn) [I-464] | B (B (>50% -75%)) | < 100 nM |  |  |
| Cc1cc(S(=O)(=O)C2CCC(N3CCC(CN(C)c4cccc5c4n(C)c(=O)n5C4CCC(=O)NC4=O)CC3)CC2)ccc1Nc1ncc2cc(Cl)c(=O)n(C3CCCC3)c2n1 (stereo not drawn) [I-33] | A (A (>75% o)) | < 100 nM |  |  |
| CC1(O)CCCN(c2nc(Nc3ccc(S(=O)(=O)NC4CCC(CN5CCN(c6ccc(C7CCC(=O)NC7=O)cc6)CC5)CC4)cc3C(F)(F)F)ncc2C(F)(F)F)C1 (stereo not drawn) [I-1101] | B (B (>50% -75%)) | 100 to 500 nM |  |  |
| Cc1cc(S(=O)(=O)NC2CC(N3CCN(CC4CCN(c5ccc6c(c5F)n(C)c(=O)n6C5CCC(=O)NC5=O)CC4)CC3)C2)ccc1Nc1ncc(C(F)(F)F)c(N2CCCC(C)(O)C2)n1 (stereo not drawn) [I-830] | A (A (>75% o)) | < 100 nM |  |  |
| CC1CC(NS(=O)(=O)c2ccc(Nc3ncc(C(F)(F)F)c(N4CCCC(C)(O)C4)n3)c(F)c2)CCN1CC1CCN(c2ccc(C3CCC(=O)NC3=O)c(F)c2)CC1 (stereo not drawn) [I-1037] | A (A (>75% o)) | < 100 nM |  |  |
| Cc1cc(S(=O)(=O)C2CC3(CCN(CC4CCN(c5cccc6c5n(C)c(=O)n6C5CCC(=O)NC5=O)CC4)CC3)C2)ccc1Nc1ncc2cc(C(F)F)c(=O)n(C3CCCC3)c2n1 (stereo not drawn) [I-86] | A (A (>75% o)) | < 100 nM |  |  |
| CC1(O)CCN(c2nc(Nc3ccc(S(=O)(=O)NC4CCN(CC5CCN(c6ccc(C7CCC(=O)NC7=O)c(F)c6)CC5)CC4F)cc3F)ncc2C(F)(F)F)CC1 (stereo not drawn) [I-1051] | A (A (>75% o)) | < 100 nM |  |  |
| Cc1cc(S(=O)(=O)N2CCC(N3CCC(F)(CN(C)c4ccc5c(c4F)n(C)c(=O)n5C4CCC(=O)NC4=O)CC3)CC2)ccc1Nc1ncc2ccc(=O)n(C3CCCC3)c2n1 (stereo not drawn) [I-829] | D (D (<25%)) |  |  | E |
| Cc1cc(S(=O)(=O)N2CC3(CCN(CC4CCN(c5ccc6c(c5F)n(C)c(=O)n6C5CCC(=O)NC5=O)CC4)CC3(F)F)C2)ccc1Nc1ncc2ccc(=O)n(C3CCCC3)c2n1 (stereo not drawn) [I-836] | B (B (>50% -75%)) | 100 to 500 nM |  |  |
